Assay results: US20200246317A1, “METHODS OF TREATING DIABETIC NEUROPATHY WITH A THIAZOLINE ANTI-HYPERALGESIC AGENT” (CERSCI THERAPEUTICS, INC., priority 2019, published 2020)
Structures can show the parent of a compound that is named as a salt.

Tests used:
[1] = Gravimetric Vapor Sorption (GVS); format: physicochemical
Excerpt: The sample is hygroscopic.

[2] = Stability of dose formulations for in vitro genetic toxicology assays; format: physicochemical; conditions: 0.001 to 50 mg/mL
Protocol: In addition, formulation analysis for in vitro genetic toxicology studies was performed using a validated HPLC/UV analytical method (2750-001-001 Dose Formulation Method No. 2) with linearity over a range of 0.001 to 50 mg/mL. Dose formulations for in vitro assays were stable at room temperature for up to 1 day and when stored frozen at −20° C. for up to 45 days.

[3] = tested on: streptozotocin (STZ)-induced diabetic rats; experiment: Mechanical thresholds in streptozotocin (STZ)-induced diabetic rats; format: in vivo, rat
Protocol: Experiments were conducted to determine the effect of Compound 1 in streptozotocin (STZ)-induced diabetic rats. In the first experiment, after obtaining mechanical threshold baselines, STZ (50 mg/kg IV) was administered (Day −7). Two days later, blood glucose levels were measured and animals that were hyperglycemic (>250 mg/dL) continued in the study. On Day 0 the baseline for mechanical thresholds prior to dosing with test articles was established for the rats. Compound 1 (10, 30, and 100 mg/kg PO), gabapentin (100 mg/kg PO) or vehicle was then administered daily for 5 days. On Day 0 mechanical thresholds were obtained at 1, 3, and 6 h post-dose. On Day 1 mechanical thresholds were measured immediately prior to dosing and then 3 h post-dose. The same regimen was followed on Day 3.
In a subsequent study, the same STZ paradigm was followed. However, in addition to the 100 mg/kg Compound 1 group, two additional cohorts received the Compound 1 100 mg/kg dose split into two or three doses per day with 50 mg/kg BID and 33 mg/kg TID. In addition to the gabapentin (100 mg/kg PO) group, a separate cohort received duloxetine (30 mg/kg PO). Additionally, in this study mechanical threshold testing was implemented every day immediately prior to dosing and 2 h post-dose for 7 days.

[4] = tested on: methylglyoxal-induced diabetic neuropathy; experiment: Rat model of diabetic neuropathy, methylglyoxal-induced; format: in vivo; conditions: methylglyoxal-induced (overview)
[5] = tested on: models of painful diabetic neuropathy; experiment: Models of painful diabetic neuropathy (overview); format: in vivo; conditions: upon repeated dosing
[6] = tested on: hypersensitivity caused by an injury/insult such as an incision or irritant; experiment: Hypersensitivity caused by an injury/insult (incision or irritant); conditions: in vivo
[7] = tested on: lactoperoxidase oxidation (mediated by peroxide); experiment: Lactoperoxidase oxidation (mediated by peroxide); format: biochemical; conditions: physiological conditions (neutral pH)
[8] = Rat brain distribution and pharmacokinetic study; format: in vivo
Excerpt: A rat brain distribution study performed in order to determine standard pharmacokinetic parameters and to assess the brain penetration properties of Compound 1 administered orally and intravenously.

Pharmacokinetics in dog = format: in vivo
Protocol: Similar conditions were used to validate a bioanalytical method in dog plasma also using 50 μL of plasma. In both assays, a deuterated (Compound 1-d4) internal standard was used.

[9] = Stability in hepatocytes, rat; format: in vitro ADME
[10] = Stability in hepatocytes, human; format: in vitro ADME
Excretion in rats = format: in vivo, rat
P-gp (MDR1/ABCB1) = target: T1, P-gp (MDR1/ABCB1) (Homo sapiens, UniProt P08183); experiment: Inhibition of transporters, P-gp (Caco-2 cells, digoxin); format: in vitro ADME
T1 construct: Caco-2 cells; endogenous in cells; host or cells: Caco-2 cells

OAT3 = target: T2, OAT3 (Homo sapiens, UniProt Q8TCC7); experiment: Inhibition of transporters, OAT3 (HEK293 cells); format: in vitro ADME
T2 construct: expressed in transfected cells; host or cells: HEK293 cells
T2 sequence (Q8TCC7 1-542): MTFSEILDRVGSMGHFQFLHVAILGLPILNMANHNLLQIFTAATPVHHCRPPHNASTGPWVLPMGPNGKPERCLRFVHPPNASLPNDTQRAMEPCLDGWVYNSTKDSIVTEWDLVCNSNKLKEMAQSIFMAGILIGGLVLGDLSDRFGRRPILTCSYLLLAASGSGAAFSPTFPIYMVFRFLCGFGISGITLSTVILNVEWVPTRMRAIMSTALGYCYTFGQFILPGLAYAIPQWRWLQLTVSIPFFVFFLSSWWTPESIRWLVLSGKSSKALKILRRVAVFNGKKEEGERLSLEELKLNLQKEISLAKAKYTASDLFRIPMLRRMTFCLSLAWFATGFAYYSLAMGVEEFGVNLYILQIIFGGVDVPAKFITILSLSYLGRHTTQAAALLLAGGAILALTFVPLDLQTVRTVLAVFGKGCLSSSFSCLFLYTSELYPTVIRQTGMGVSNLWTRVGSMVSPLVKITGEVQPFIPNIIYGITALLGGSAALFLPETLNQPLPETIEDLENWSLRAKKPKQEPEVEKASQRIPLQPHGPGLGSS

T1 sequence (P08183 whole entry): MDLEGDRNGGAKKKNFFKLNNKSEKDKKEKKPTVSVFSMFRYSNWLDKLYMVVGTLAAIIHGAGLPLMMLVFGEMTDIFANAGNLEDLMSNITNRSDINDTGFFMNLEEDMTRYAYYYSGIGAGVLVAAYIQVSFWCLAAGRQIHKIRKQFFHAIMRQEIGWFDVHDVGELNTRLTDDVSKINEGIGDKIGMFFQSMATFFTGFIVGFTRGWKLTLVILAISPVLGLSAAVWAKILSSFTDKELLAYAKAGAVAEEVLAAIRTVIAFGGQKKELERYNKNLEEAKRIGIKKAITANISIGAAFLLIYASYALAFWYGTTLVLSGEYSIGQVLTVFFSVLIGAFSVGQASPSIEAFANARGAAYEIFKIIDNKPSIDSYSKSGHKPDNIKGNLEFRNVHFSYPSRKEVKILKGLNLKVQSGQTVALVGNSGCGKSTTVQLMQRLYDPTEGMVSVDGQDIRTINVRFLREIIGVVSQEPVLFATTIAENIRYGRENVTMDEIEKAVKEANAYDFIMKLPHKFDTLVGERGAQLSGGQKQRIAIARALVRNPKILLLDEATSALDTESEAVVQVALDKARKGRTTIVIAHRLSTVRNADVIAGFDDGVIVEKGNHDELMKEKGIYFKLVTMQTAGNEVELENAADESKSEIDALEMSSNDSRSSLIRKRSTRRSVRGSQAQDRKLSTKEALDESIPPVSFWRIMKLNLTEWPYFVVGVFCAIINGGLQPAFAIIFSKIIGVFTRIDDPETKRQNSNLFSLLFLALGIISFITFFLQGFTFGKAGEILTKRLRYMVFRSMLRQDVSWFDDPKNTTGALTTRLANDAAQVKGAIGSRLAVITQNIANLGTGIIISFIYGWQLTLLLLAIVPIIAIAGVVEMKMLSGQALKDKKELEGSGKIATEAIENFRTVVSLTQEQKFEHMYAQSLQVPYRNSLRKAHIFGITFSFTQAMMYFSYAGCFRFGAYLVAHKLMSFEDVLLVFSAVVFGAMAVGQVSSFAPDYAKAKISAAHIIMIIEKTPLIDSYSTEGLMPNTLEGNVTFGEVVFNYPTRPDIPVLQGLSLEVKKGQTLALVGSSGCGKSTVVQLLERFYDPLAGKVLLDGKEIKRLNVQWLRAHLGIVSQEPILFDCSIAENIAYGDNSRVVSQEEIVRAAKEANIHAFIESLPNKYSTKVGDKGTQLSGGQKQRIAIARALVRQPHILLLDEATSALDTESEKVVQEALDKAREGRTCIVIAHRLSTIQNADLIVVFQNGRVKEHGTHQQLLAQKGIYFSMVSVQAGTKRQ

## CC1(C)SC(Nc2ccccc2O)=N[C@@H]1C(=O)O [Compound 1, (R)-2-(2-hydroxyphenylamino)-5,5-dimethyl-4,5-dihydrothiazole-4-carboxylic acid mono-hydrochloride]
[1]
  hygroscopicity: hygroscopic
[2]; room temperature
  stability of dose formulations for in vitro assays, time stable: up to 1 day
[2]; stored frozen at −20° C.
  stability of dose formulations for in vitro assays, time stable: up to 45 days
[3]; first experiment, 10, 30, 100 mg/kg PO daily, subsequent days
  reversal of allodynia (mechanical threshold relative to vehicle): statistically-significant
[3]; first experiment, Compound 1 10, 30, 100 mg/kg PO, gabapentin 100 mg/kg PO daily, Day 0 (gabapentin: 1 h post-dose on Day 0 and all time points thereafter)
  reversal of allodynia (mechanical threshold): non-significant reversal of allodynia
[3]; first experiment, subsequent days, gabapentin 100 mg/kg PO
  effect on mechanical threshold compared with gabapentin: comparable to gabapentin
[3]; rat model of diabetic neuropathy, streptozotocin-induced (overview)
  effect on allodynia: alleviates allodynia
[3]; subsequent study, 100 mg/kg QD vs 50 mg/kg BID vs 33 mg/kg TID
  difference between dosing regimens: no clear difference
[3]; subsequent study, 7 days, Compound 1 100 mg/kg QD, 50 mg/kg BID, 33 mg/kg TID, gabapentin 100 mg/kg PO, duloxetine 30 mg/kg PO
  reversal of allodynia (mechanical threshold): reversed allodynia upon continued daily dosing reaching statistical significance from Day 1 and beyond
[4]
  effect on allodynia: alleviates allodynia
[5]
  effect on allodynia: reverses allodynia
[6]
  reversal of hypersensitivity: complete reversal of hypersensitivity
[7]
  removal of peroxynitrite: catalytically remove peroxynitrite
[8]; overview
  distribution to tissues and brain: distributes to tissues but not to brain to an appreciable extent
[8]; rat
  bioavailability after oral administration: bioavailable
[8]; rats
  elimination from the systemic circulation: moderate rate
[8]; rats, 30 mg/kg oral dose
  Oral bioavailability: 111%
  oral absorption: rapidly and completely absorbed
  peak plasma concentration: 9 µg/mL
  terminal half-life: 1.6 h
  time to peak plasma concentration: ≤ 1 h
Pharmacokinetics in dog
  bioavailability after oral administration: bioavailable
[9]
  stability in hepatocytes: stable
[10]
  stability in hepatocytes: stable
Excretion in rats
  form excreted into urine and feces: primarily as a sulfate conjugate
P-gp (MDR1/ABCB1)
  inhibition of P-gp (in words): does not inhibit
OAT3
  inhibition of OAT3 (in words): weakly inhibits
